Test results from patent publication US20150183737A1, “COMPOSITIONS AND METHODS FOR SUBSTRATE-SELECTIVE INHIBITION OF ENDOCANNABINOID OXYGENATION” (Vanderbilt University, priority 2012, published 2015).
“Also recorded” adds a separate entry of the source.

Key:
[1] = Detection of Compound A in brain extract; conditions: 2 hours after i.p. injection, LC-MS/MS
[2] = target: T1, COX-2 in stimulated RAW 264.7 macrophages (Mus musculus, UniProt Q05769); experiment: RAW 264.7 macrophage inhibition assay (Compound A); type: cell-based
T1 construct: endogenous in cells; host or cells: RAW 264.7 macrophages stimulated with LPS (and GM-CSF / interferon γ where described)
T1 sequence (Q05769 18-604): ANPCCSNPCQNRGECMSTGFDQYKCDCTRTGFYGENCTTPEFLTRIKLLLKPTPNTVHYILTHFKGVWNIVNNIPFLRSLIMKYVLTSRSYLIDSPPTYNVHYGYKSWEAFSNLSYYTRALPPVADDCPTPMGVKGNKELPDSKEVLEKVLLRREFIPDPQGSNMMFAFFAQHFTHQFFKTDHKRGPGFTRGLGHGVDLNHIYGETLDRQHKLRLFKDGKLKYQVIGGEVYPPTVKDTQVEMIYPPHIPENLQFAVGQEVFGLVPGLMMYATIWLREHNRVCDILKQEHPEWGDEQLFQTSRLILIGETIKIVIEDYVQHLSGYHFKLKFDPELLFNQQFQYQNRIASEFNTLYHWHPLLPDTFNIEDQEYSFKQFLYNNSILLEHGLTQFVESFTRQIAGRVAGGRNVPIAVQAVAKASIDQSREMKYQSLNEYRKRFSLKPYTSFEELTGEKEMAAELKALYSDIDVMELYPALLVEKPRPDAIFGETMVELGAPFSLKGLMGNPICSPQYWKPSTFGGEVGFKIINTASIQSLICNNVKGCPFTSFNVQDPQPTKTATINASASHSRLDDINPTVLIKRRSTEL

[3] = tested on: ICR mice; experiment: Novel open field test; type: in vivo
Protocol: Animals were tested for open-field activity in a novel environment one hour after i.p. injection of compound as described in Sumislawski et al., 2011. Briefly, one-hour sessions were performed using automated experimental chambers (27.9 27.9 cm; MEDOFA-510; MED Associates, Ga., Vermont, United States of America) under constant illumination within a sound-attenuated room. Analysis of open field activity was performed using Activity Monitor v5.10 (MED Associates).

[4] = tested on: peripheral tissue eCB, NAE, MAG and PG levels; experiment: Peripheral tissue NAE, MAG and PG levels after i.p. injection; type: in vivo, mice
Protocol: Mice were sacrificed by cervical dislocation and decapitation. The brain, lungs, liver, stomach, small intestines, and kidneys were then rapidly removed and frozen on a metal block in dry ice. The tissue was then placed in a tube and stored at −80° C. until extraction, usually one day after harvesting. For PG and eCB analysis, lipid extraction from tissue was carried out as described in Patel et al., 2009.
Analytes were quantified using LC-MS/MS on a Quantum triple-quadrupole mass spectrometer in positive-ion mode using selected reaction monitoring. Detection of eicosanoids was performed as described in Kingsley & Marnett, 2007. For fatty acid analysis the mobile phases used were 80 μM AgOAc with 0.1% (v/v) acetic acid in H2O (solvent A) and 120 μM AgOAc with 0.1% (v/v) acetic acid in MeOH (solvent B). The analytes were eluted using a gradient from 20% A to 99% B over 5 minutes. The transitions used were m/z 300→282 for PEA, m/z 328→310 for SEA, m/z 434→416 for OEA, m/z 456→438 for AEA, m/z 464→446 for AEA-d8, m/z 331→257 for 2-PG, m/z 359→285 for 2-SG, m/z 463→389 for 2-OG, m/z 485→411 for 2-AG, m/z 493→419 for 2-AG-d8, m/z 519→409 for AA, and m/z 527→417 for AA-d8. Peak areas for the analytes were normalized to the appropriate internal standard and then normalized to tissue mass for in vivo samples. […]

[5] = tested on: ICR mice; experiment: Novel object recognition; type: in vivo; conditions: 10 mg/kg i.p., prior to object memory retrieval
Protocol: Mice were handled 4 days prior to training for at least 1 min per day. During pre-training, mice were placed in an open Plexiglas rectangular chamber for 10 minutes in order for the mice to become familiar with the testing environment. Twenty-four hours later, the mice were placed into the same rectangular chamber with two identical sample objects, yellow rubber ducks, for 10 minutes in order for the mice to become familiar with the objects. During training, the sample objects were placed in opposite corners in the back of the chamber 5 cm from each wall and secured by weight to the floor of the chamber. Twenty-four hours later, the mice were placed into the chamber again with one sample or familiar object and a novel object, a white leaf statue, for 5 minutes. During testing, the objects were placed in opposite corners in the back of the chamber 5 cm from each wall and secured by weight to the floor of the chamber.
To determine exploration time with the sample and novel objects, each mouse was timed when interacting with the sample or novel object when the nose of the mouse was in contact with the object or directed toward the object within a 2 cm distance of the object. […] In addition, a discrimination ratio (e.g., ratio of a mouse's interaction with a novel object to that mouse's total interaction with both sample and novel objects) was determined. […]

[6] = lipopolysaccharide-activated RAW 264.7 macrophages
[7] = stimulated RAW 264.7 macrophages
[8] = 10 mg/kg, two hours after injection

COc1ccc2c(c1)c(CC(=O)N1CCOCC1)c(C)n2C(=O)c1ccc(Cl)cc1 [Compound A, 2-[1-(4-Chloro-benzoyl)-5-methoxy-2-methyl-1H-indol-3-yl]-1-morpholin-4-yl-ethanone]
Indomethacin in brain extract after Compound A treatment [1]: not detected
Presence of compound in brain [1]: present in the brain
Inhibition of AA oxygenation in cells [2, 6]: without inhibiting AA oxygenation
Inhibition of eCB oxygenation by COX-2 in cells [2, 6]: effective at inhibiting eCB oxygenation
2-AG levels [2, 7]: increasing; also recorded: concentration-dependently increased
AA levels [2, 7]: without increasing AA levels
2-AG levels ([2]; stimulated RAW 264.7 macrophages, 3 μM (p=0.007)): significantly increased
Center distance travelled and center time in the open-field arena ([3]; 10 mg/kg): increased
Open field behavior in mice treated with Rimonabant ([3]; Rimonabant 3 mg/kg): no significant behavioral effect
Exploratory behavior and center time exploration in the open field (Example 8) ([3]; most pronounced during minutes 40-60): dose-dependently increased
Open field behavior (center distance or time) in CB1^(−/−) mice ([3]; mouse, in vivo): did not produce any behavioral effect; also recorded: did not increase
Open field behavior in COX-2^(−/−) mice ([3]; mouse, in vivo): did not produce any significant behavioral effects
Open field behavior in vehicle-pretreated mice ([3]; mouse, in vivo): exerting anxiolytic actions
Open field behavior in wild type littermates of COX-2^(−/−) mice ([3]; mouse, in vivo): normal anxiolytic-like response
Hypolocomotion ([3]; open field data): did not cause hypolocomotion
AEA levels in the kidney [4, 8]: significantly increased
AEA levels in the lung [4, 8]: significantly increased
AEA levels in the small intestine [4, 8]: significantly increased
AEA levels in the stomach [4, 8]: significantly increased
Liver NAE levels ([4]; liver): did not affect
2-AG or any other MAG in any tissue ([4]; peripheral tissues, 10 mg/kg): no effect
Levels of any other NAE in any tissue ([4]; peripheral tissues, 10 mg/kg): did not affect
PG levels in peripheral tissues ([4]; stomach, heart, kidney, lung, intestine): no effect
Memory deficits in the novel object recognition assay [5]: did not induce memory deficits
